{"source": "patent US8846757B2", "about": "“Bioactive depside and anthocyanin compounds, compositions, and methods of use” (The Trustees of Columbia University in the City of New York, priority 2006, dated 2014)", "key": {"[1]": {"assay": "DPPH assay (antiradical activity)", "settings": "400 μM DPPH", "experimental": "The DPPH assay was performed on extracts, fractions, and purified compounds as previously described, using 400 μM DPPH (9).\nThe DPPH assay is an indication of the ability of a substance to scavenge free radicals. Gallic acid is know to be an effective free radical scavenger."}, "[2]": {"test_system": "IL-8 production in human small airway epithelial (SAE) cells", "assay": "IL-8 immunoassay (ELISA) in SAE cells", "assay_type": "cell-based", "settings": "compound 100 μM, 24 hours; for inhibition at 100 µM: Homo sapiens", "experimental": "Human SAE cells were cultured according to supplier instructions (Clonetics, CA) and maintained in a controlled atmosphere of air-5% CO2 at 37° C. Confluent SAE cells at passages 4-8 were used for experiments.\nCigarette smoke extract (CSE) was prepared using a modified protocol (24). Briefly, a Barnet vacuum pump operating at constant flow was used to draw the smoke of one unfiltered 2R1 reference cigarette (University of Kentucky) through 25 mL of Dulbecco's phosphate-buffered saline. This solution (100% CSE) was adjusted to pH 7.4, filtered, diluted with small airway growth medium to a final concentration of 5%, and added to the cells immediately.\nCells were treated with 5% CSE or pure compounds (100 μM), or pretreated with pure compounds 30 minutes prior to 5% CSE exposure. After 24 hours measurement of human IL-8 in cell culture supemates was performed by ELISA (R&D Systems Inc., MN). Statistical analyses were performed by Student's t-test (two-sided) using the JMP Statistics software package (SAS Institute Inc., NC) and defined at the 5% level."}, "HT29 colon cancer cells [3]": {"test_system": "HT29 colon cancer cells", "assay": "Cytotoxicity assay, HT29", "settings": "read-out: Cytotoxicity IC50 HT29"}, "[4]": {"test_system": "HCT116 colon cancer cells", "assay": "Cytotoxicity assay, HCT116", "settings": "read-out: Cytotoxicity IC50 HCT116"}, "HT29 colon cancer cells [5]": {"test_system": "HT29 colon cancer cells"}, "[6]": {"test_system": "HCT116 colon cancer cells"}, "SW480 colon cancer cells": {"test_system": "SW480 colon cancer cells", "assay": "Cytotoxicity assay, SW480", "assay_type": "cell-based", "settings": "72 hours, cell count"}, "HT29 colon cancer cells [7]": {"test_system": "HT29 colon cancer cells", "settings": "positive controls, refs (8, 19); cited from earlier work"}, "[8]": {"settings": "pretreated 30 minutes prior to 5% CSE"}}, "note": "Where two headings read alike, the source gives them in different places."}
{"molecule": "COC(=O)Cc1c(O)cc(O)cc1OC(=O)c1ccc(O)c(O)c1", "note": "[Compound 1, methyl 2-[(3,4-dihydroxybenzoyloxy)-4,6-dihydroxyphenyl]acetate]", "values": [{"measurement": "IC50", "setting": "[1]", "value": 51.4, "unit": "µM"}, {"measurement": "inhibition at 100 µM", "setting": "[2]; no CSE, read-out: IL-8 inhibition in SAE cells, Untreated", "value": 81.3, "unit": "%"}, {"measurement": "inhibition at 100 µM", "setting": "[2]; pretreated 30 minutes prior to 5% CSE, read-out: IL-8 inhibition in SAE cells, Treated with 5% CSE", "value": 47.3, "unit": "%"}, {"measurement": "IC50", "setting": "HT29 colon cancer cells [3]; Homo sapiens, HT-29, 72 h", "value": 65, "unit": "µM"}, {"measurement": "IC50", "setting": "[4]; Homo sapiens, HCT-116, 72 h", "value": "> 100", "unit": "µM"}]}
{"molecule": "O=C(O)Cc1c(O)cc(O)cc1OC(=O)c1ccc(O)c(O)c1", "note": "[Compound 2, 2-O-(3,4-dihydroxybenzoyl)-2,4,6-trihydroxyphenylacetic acid]", "values": [{"measurement": "IC50", "setting": "[1]", "value": 61.8, "unit": "µM"}, {"measurement": "IL-8 inhibition in SAE cells, Untreated", "setting": "[2]; no CSE", "value": 74.9, "unit": "%"}, {"measurement": "IL-8 inhibition in SAE cells, Treated with 5% CSE", "setting": "[2]; [8]", "value": 70.3, "unit": "%"}, {"measurement": "IC50", "setting": "HT29 colon cancer cells [5]", "value": "> 100", "unit": "µM"}, {"measurement": "IC50", "setting": "[6]", "value": 30, "unit": "µM"}]}
{"molecule": "OC[C@H]1O[C@@H](Oc2cc3c(O)cc(O)cc3[o+]c2-c2ccc(O)c(O)c2)[C@H](O)[C@@H](O)[C@@H]1O", "note": "[Compound 3, cyanidin 3-glucoside]", "values": [{"measurement": "IC50", "setting": "[1]", "value": 28.4, "unit": "µM"}, {"measurement": "IL-8 inhibition in SAE cells, Untreated", "setting": "[2]; no CSE", "value": 65.3, "unit": "%"}, {"measurement": "IL-8 inhibition in SAE cells, Treated with 5% CSE", "setting": "[2]; [8]", "value": 36.4, "unit": "%"}, {"measurement": "IC50", "setting": "SW480 colon cancer cells", "value": "90 to 100", "unit": "µM"}, {"measurement": "IC50", "setting": "HT29 colon cancer cells [3]; 72 hours, cell count", "value": "~100", "unit": "µM"}, {"measurement": "IC50", "setting": "[4]; 72 hours, cell count", "value": "~70", "unit": "µM"}]}
{"molecule": "OC[C@H]1O[C@@H](Oc2cc3c(O)cc(O)cc3[o+]c2-c2cc(O)c(O)c(O)c2)[C@H](O)[C@@H](O)[C@@H]1O", "note": "[Compound 4, delphinidin 3-glucoside]", "values": [{"measurement": "IC50", "setting": "[1]", "value": 26.3, "unit": "µM"}, {"measurement": "IL-8 inhibition in SAE cells, Untreated", "setting": "[2]; no CSE, 100 µM", "value": "Not Detected"}, {"measurement": "IL-8 inhibition in SAE cells, Treated with 5% CSE", "setting": "[2]; [8]", "value": 96.0, "unit": "%"}, {"measurement": "IC50", "setting": "SW480 colon cancer cells", "value": 20, "unit": "µM"}, {"measurement": "IC50", "setting": "HT29 colon cancer cells [3]; 72 hours, cell count", "value": "~100", "unit": "µM"}, {"measurement": "IC50", "setting": "[4]; 72 hours, cell count", "value": 12, "unit": "µM"}]}
{"molecule": "O=c1[nH]cc(F)c(=O)[nH]1", "note": "[Compound 5-FU, 5-fluorouracil, reference compound]", "values": [{"measurement": "IC50", "setting": "SW480 colon cancer cells; Homo sapiens, SW480", "value": 53, "unit": "µM"}, {"measurement": "IC50", "setting": "HT29 colon cancer cells [3]; Homo sapiens, HT-29, 72 h", "value": 46.1, "unit": "µM"}, {"measurement": "IC50", "setting": "[4]; Homo sapiens, HCT-116, 72 h", "value": 45.1, "unit": "µM"}]}
{"molecule": "O=C(O[C@@H]1Cc2c(O)cc(O)cc2O[C@@H]1c1cc(O)c(O)c(O)c1)c1cc(O)c(O)c(O)c1", "note": "[EGCG, epigallocatechin gallate]", "values": [{"measurement": "HT29 IC50", "setting": "HT29 colon cancer cells [7]", "value": 27, "unit": "µg/mL"}]}
{"molecule": "O=C(O)c1cc(O)c(O)c(O)c1", "note": "[Gallic acid, gallic acid, reference compound]", "values": [{"measurement": "IC50", "setting": "[1]", "value": "30 ± 2.9", "unit": "µM"}]}
{"molecule": "catechin [reference compound]", "values": [{"measurement": "IL-8 inhibition in SAE cells, Untreated", "setting": "[2]; no CSE", "value": "No Change"}, {"measurement": "IL-8 inhibition in SAE cells, Treated with 5% CSE", "setting": "[2]; [8]", "value": 60.3, "unit": "%"}]}
